Laboratory results reported in US20040266732A1, “Therapeutic agents, methods, and treatments” (priority 2002, published 2004).

Columns and labels:
Assay in all cases: NCI 60 cell-line test
Assay type in all cases: cell-based, human
A549/ATCC = A549/ATCC (Non-Small Cell Lung Cancer)
Procedure: (§1) Methodology: The NCI conducted a test of the MT103 drug against 60 human cell lines, with a minimum of five concentrations of MT103 at 10-fold dilutions. A 48 hour continuous drug exposure was used, and a sulforhodamine B (SRB) protein assay was used to estimate cell viability and growth. The human tumor cell lines of the cancer screening panel were grown in RPMI 1640 medium containing 5% fetal bovine serum and 2 mM L-glutamine. Cells were inoculated into 96 well microtiter plates in 100 μL at plating densities ranging from 5,000 to 40,000 cells/well depending on the doubling time of individual cell lines. After cell inoculation, the microtiter plates are incubated at 37° C., 5% CO2, 95% air, and 100% relative humidity for 24 h prior to addition of experimental drugs.
(§2) After 24 h, two plates of each cell line were fixed in situ with TCA, to represent a measurement of the cell population for each cell line at the time of drug addition (Tz). MT103 was solubilized in dimethyl sulfoxide at 400-fold the desired final maximum test concentration and stored frozen prior to use. At the time of drug addition, an aliquot of frozen concentrate was thawed and diluted to twice the desired final maximum test concentration with complete medium containing 50 μg/ml gentamicin. Additional four, 10-fold or ½ log serial dilutions were made to provide a total of five drug concentrations plus control. Aliquots of 100 μl of these different drug dilutions were added to the appropriate microtiter wells already containing 100 μl of medium, resulting in the required final drug concentrations.
(§3) Following drug addition, the plates were incubated for an additional 48 h at 37° C., 5% CO2, 95% air, and 100% relative humidity. For adherent cells, the assay was terminated by the addition of cold TCA. Cells were fixed in situ by the gentle addition of 50 μl of cold 50% (w/v) TCA (final concentration, 10% TCA) and incubated for 60 minutes at 4° C. The supernatant was discarded, and the plates were washed five times with tap water and air dried. Sulforhodamine B (SRB) solution (100 μl) at 0.4% (w/v) in 1% acetic acid was added to each well, and plates were incubated for 10 minutes at room temperature. After staining, unbound dye was removed by washing five times with 1% acetic acid and the plates were air-dried. Bound stain was subsequently solubilized with 10 mM trizma base, and the absorbance was read on an automated plate reader at a wavelength of 515 nm. For suspension cells, the methodology was the same except that the assay was terminated by fixing settled cells at the bottom of the wells by gently adding 50 μl of 80% TCA (final concentration, 16% TCA). Using the seven absorbance measurements (time zero, (Tz), control growth, (C), and test growth in the presence of drug at the five concentration levels (Ti)), the percentage growth was calculated at each of the drug concentrations levels. Percentage growth inhibition was calculated as:
(§4) [(Ti-Tz)/(C-Tz)]×100 for concentrations for which Ti>/=Tz
(§5) [(Ti-Tz)/Tz]×100 for concentrations for which Ti<Tz.
(§6) Three dose response parameters were calculated for each experimental agent. Growth inhibition of 50% (GI50) was calculated from [(Ti-Tz)/(C-Tz)]×100=50, which is the drug concentration resulting in a 50% reduction in the net protein increase (as measured by SRB staining) in control cells during the drug incubation. The drug concentration resulting in total growth inhibition (TGI) was calculated from Ti=Tz. The LC50 (concentration of drug resulting in a 50% reduction in the measured protein at the end of the drug treatment as compared to that at the beginning) indicating a net loss of cells following treatment was calculated from [(Ti-Tz)/Tz]×100=−50. Values were calculated for each of these three parameters if the level of activity is reached; however, if the effect was not reached or was exceeded, the value for that parameter was expressed as greater or less than the maximum or minimum concentration tested.

HCT-116 = HCT-116 (Colon Cancer)
Procedure: as §1, §2, §3, §4, §5, §6

HOP-62 = HOP-62 (Non-Small Cell Lung Cancer)
Procedure: as §1, §2, §3, §4, §5, §6

K-562 = K-562 (Leukemia)
Procedure: as §1, §2, §3, §4, §5, §6

MALME-3M = MALME-3M (Melanoma)
Procedure: as §1, §2, §3, §4, §5, §6

MOLT-4 = MOLT-4 (Leukemia)
Procedure: as §1, §2, §3, §4, §5, §6

NCI-H460 = NCI-H460 (Non-Small Cell Lung Cancer)
Procedure: as §1, §2, §3, §4, §5, §6

NCI-H522 = NCI-H522 (Non-Small Cell Lung Cancer)
Procedure: as §1, §2, §3, §4, §5, §6

RPMI-8226 = RPMI-8226 (Leukemia)
Procedure: as §1, §2, §3, §4, §5, §6

SF-539 = SF-539 (CNS Cancer)
Procedure: as §1, §2, §3, §4, §5, §6

SK-MEL-28 = SK-MEL-28 (Melanoma)
Procedure: as §1, §2, §3, §4, §5, §6

SNB-75 = SNB-75 (CNS Cancer)
Procedure: as §1, §2, §3, §4, §5, §6

SR = SR (Leukemia)
Procedure: as §1, §2, §3, §4, §5, §6

T-47D = T-47D (Breast Cancer)
Procedure: as §1, §2, §3, §4, §5, §6

TK-10 = TK-10 (Renal Cancer)
Procedure: as §1, §2, §3, §4, §5, §6

[1] = read-out: LC50 (the source's name)

CC1(C)C2CC[C@@]1(CS(=O)(=O)N(C1CCCCC1)C1CCCCC1)C(O)C2 (stereo partly drawn) [MT103]
TGI (A549/ATCC): >1.00E−04
IC50 (A549/ATCC; read-out: G150): 28.3 µM
CC50 (A549/ATCC; [1]): > 100 µM
TGI (HCT-116): >1.00E−04
IC50 (HCT-116; read-out: G150): 43.8 µM
CC50 (HCT-116; [1]): > 100 µM
TGI (HOP-62): >1.00E−04
IC50 (HOP-62; read-out: G150): 57.5 µM
CC50 (HOP-62; [1]): > 100 µM
TGI (K-562): >1.00E−04
IC50 (K-562; read-out: G150): 26.8 µM
CC50 (K-562; [1]): > 100 µM
TGI (MALME-3M): 4.44E−05
IC50 (MALME-3M; read-out: G150): 13.1 µM
CC50 (MALME-3M; [1]): > 100 µM
TGI (MOLT-4): >1.00E−04
IC50 (MOLT-4; read-out: G150): 20.6 µM
CC50 (MOLT-4; [1]): > 100 µM
TGI (NCI-H460): >1.00E−04
IC50 (NCI-H460; read-out: G150): 30.9 µM
CC50 (NCI-H460; [1]): > 100 µM
TGI (NCI-H522): 5.50E−05
IC50 (NCI-H522; read-out: G150): 21.5 µM
CC50 (NCI-H522; [1]): > 100 µM
TGI (RPMI-8226): 3.68E−05
IC50 (RPMI-8226; read-out: G150): 11.8 µM
CC50 (RPMI-8226; [1]): > 100 µM
TGI (SF-539): >1.00E−04
IC50 (SF-539; read-out: G150): 54.6 µM
CC50 (SF-539; [1]): > 100 µM
TGI (SK-MEL-28): >1.00E−04
IC50 (SK-MEL-28; read-out: G150): 50.7 µM
CC50 (SK-MEL-28; [1]): > 100 µM
LC50 (concentration killing 50% of tumour cells) (SNB-75): > 100 µM
TGI (SNB-75): 8.83E−05
IC50 (SNB-75; read-out: G150): 19.5 µM
TGI (SR): >1.00E−04
IC50 (SR; read-out: G150): 23.8 µM
CC50 (SR; [1]): > 100 µM
TGI (T-47D): >1.00E−04
IC50 (T-47D; read-out: G150): 62 µM
CC50 (T-47D; [1]): > 100 µM
TGI (TK-10): 9.02E−05
IC50 (TK-10; read-out: G150): 21.6 µM
CC50 (TK-10; [1]): > 100 µM
